pIC50: −log10 of the molar value.
Assays:
[1] = target: T1, HCV polymerase (NS5B) type 1b (Hepatitis C virus genotype 1b, UniProt P26663); assay: Assay of enzyme (HCV polymerase) inhibitory activity, type 1b enzyme; type: biochemical, HCV BK strain (type 1b); settings: HCV polymerase inhibitory activity (IC50), 1b, type 1b enzyme 0.5 μg/ml, 25° C., 60 min
T1 construct: a region encoding NS5B (J Virol 1991 March, 65(3), 1105-13, 544 amino acids after deletion of 47 amino acids on the C-terminal); 6xHis (C); made in house; host or cells: Escherichia coli
From the text: (§1) The evaluation of the HCV polymerase inhibitory activity of the compound of the present invention is explained in the following. This polymerase is an enzyme coded for by the non-structural protein region called NS5B on the genome RNA of HCV.
(§2) i) Preparation of Enzyme (HCV Polymerase)
(§3) Using, as a template, a cDNA clone corresponding to the full length genome RNA of HCV BK strain (type 1b) obtained from the blood of a patient with hepatitis C, a region encoding NS5B (J Virol 1991 March, 65(3), 1105-13, 544 amino acids after deletion of 47 amino acids on the C-terminal) was amplified by PCR. The objective gene was prepared by adding a 6 His tag {base pair encoding 6 continuous histidine (His)} to the 3′ end thereof and transformed to Escherichia coli. The Escherichia coli capable of producing the objective protein was cultured. The obtained cells were suspended in a buffer solution and crushed in a microfluidizer. The supernatant was obtained by centrifugation and applied to various column chromatographys {mono-S, Sephacryl S-200 (Pharmacia)}, inclusive of metal chelate chromatography, to give a standard enzyme product.
(§4) ii) Synthesis of Substrate RNA
(§5) Using a synthetic primer designed based on the sequence of HCV genomic 3′ untranslated region, a DNA fragment (148 bp) containing polyU and 3′X sequence was entirely synthesized and cloned into plasmid pBluescript SK II(+) (Stratagene). The cDNA encoding full length NS5B, which was prepared in i) above, was digested with restriction enzyme KpnI to give a cDNA fragment containing the nucleotide sequence of from the restriction enzyme cleavage site to the termination codon. This cDNA fragment was inserted into the upstream of 3′ untranslated region of the DNA in pBluescript SK II(+) and ligated. The about 450 bp inserted DNA sequence was used as a template in the preparation of substrate RNA. This plasmid was cleaved immediately after the 3′X sequence, linearized and purified by phenol-chloroform treatment and ethanol precipitation to give DNA.
(§6) RNA was synthesized (37° C., 4 hr) by run-off method using this purified DNA as a template, a promoter of pBluescript SK II(+), MEGAscript RNA synthesis kit (Ambion) and T7 RNA polymerase. DNase I was added and the mixture was incubated for 1 hr. The template DNA was removed by decomposition to give a crude RNA product. This crude product was treated with phenol-chloroform and purified by ethanol precipitation to give the objective substrate RNA.
(§7) This RNA was applied to urea denaturation polyacrylamide gel electrophoresis to confirm the quality thereof and preserved at −80° C.
(§8) iii) Assay of Enzyme (HCV Polymerase) inhibitory activity
(§9) A test substance (compound of the present invention) and a reaction mixture (30 μl) having the following composition were reacted at 25° C. for 60 min.
(§10) 10% Trichloroacetic acid and 1% sodium pyrophosphate solution (150 μl) at 4° C. was added to this reaction mixture to stop the reaction. The reaction mixture was left standing at 4° C. for 15 min to insolubilize RNA. This RNA was trapped on a glass filter (PerkinElmer, GF/B) upon filtration by suction. This filter was washed with a solution containing 1% trichloroacetic acid and 0.1% sodium pyrophosphate, washed with 90% ethanol and dried. A liquid scintillation cocktail (PerkinElmer) was added and the radioactivity of RNA synthesized by the enzyme reaction was measured on a liquid scintillation counter.
The HCV polymerase inhibitory activity (IC50) of the compound of the present invention was calculated from the values of radioactivity of the enzyme reaction with and without the test substance.
Reaction mixture: HCV polymerase (type 1b 0.5 μg/ml or type 1a 1.5 μg/m) obtained in i), substrate RNA (5 μg/ml) obtained in ii), ATP (50 μM), GTP (50 μM), CTP (50 μM), UTP (2 μM), [5,6-^3H]UTP (30-60 Ci/mmol (Amersham Biosciences), 1 μCi) 20 mM Tris-HCl (pH 7.5), EDTA (1 mM), MgCl2 (5 mM), NaCl (50 mM), DTT (1 mM), BSA (0.01%)

[2] = target: T2, HCV polymerase (NS5B) type 1a (Hepatitis C virus genotype 1a, UniProt P26664); assay: Assay of enzyme (HCV polymerase) inhibitory activity, type 1a enzyme; type: biochemical, HCV type 1a (cloned from the blood of patients); settings: HCV polymerase inhibitory activity (IC50), 1a, type 1a enzyme 1.5 μg/ml, 25° C., 60 min
T2 construct: made in house; host or cells: Escherichia coli (by the 'similar method' of the 1b enzyme)
From the text: as §1, §2, §3
Standard enzyme products for type 1a (cloned from the blood of patients) were also obtained by a similar method.
as §4, §5, §6, §7, §8, §9, §10
The HCV polymerase inhibitory activity (IC50) of the compound of the present invention was calculated from the values of radioactivity of the enzyme reaction with and without the test substance. […]

Compound | pIC50 [1] | pIC50 [2]
CC(=O)N1CCN(S(=O)(=O)c2ccc(Cl)c(Cl)c2)C(C(=O)NCc2ccc(C(F)(F)F)cc2)C1 (stereo not drawn) [Example 41, 4-acetyl-1-(3,4-dichloro-benzenesulfonyl)-piperazine-2-carboxylic acid 4-trifluoromethyl-benzylamide] | < 6.00 | < 6.00
CC(=O)N1CCN(S(=O)(=O)c2cccc(-c3ccccc3)c2)C(C(=O)NCc2ccc(C(F)(F)F)cc2)C1 (stereo not drawn) [Example 42, 4-acetyl-1-(biphenyl-3-sulfonyl)-piperazine-2-carboxylic acid 4-trifluoromethyl-benzylamide] | < 6.00 | < 6.00
CC(=O)N1CCN(S(=O)(=O)c2ccc(-c3cc(C(F)(F)F)on3)s2)C(C(=O)NCc2ccc(C(F)(F)F)cc2)C1 (stereo not drawn) [Example 43, 4-acetyl-1-[5-(5-trifluoromethyl-isoxazol-3-yl)-thiophene-2-sulfonyl]-piperazine-2-carboxylic acid 4-trifluoromethyl-benzylamide] | < 6.00 | < 6.00
COc1ccc(S(=O)(=O)N2CCN(C(C)=O)CC2C(=O)NCc2ccc(C(F)(F)F)cc2)cc1 (stereo not drawn) [Example 44, 4-acetyl-1-(4-methoxy-benzenesulfonyl)-piperazine-2-carboxylic acid 4-trifluoromethyl-benzylamide] | < 6.00 | < 6.00
CC(=O)N1CCN(S(=O)(=O)c2ccc(C(F)(F)F)cc2)C(C(=O)NCc2ccc(C(F)(F)F)cc2)C1 (stereo not drawn) [Example 45, 4-acetyl-1-(4-trifluoromethyl-benzenesulfonyl)-piperazine-2-carboxylic acid 4-trifluoromethyl-benzylamide] | < 6.00 | < 6.00
CC(=O)N1CCN(S(=O)(=O)c2ccc(C#N)cc2)C(C(=O)NCc2ccc(C(F)(F)F)cc2)C1 (stereo not drawn) [Example 46, 4-acetyl-1-(4-cyano-benzenesulfonyl)-piperazine-2-carboxylic acid 4-trifluoromethyl-benzylamide] | < 6.00 | < 6.00
CC(=O)N1CCN(S(=O)(=O)c2ccc(S(=O)(=O)c3ccccc3)s2)C(C(=O)NCc2ccc(C(F)(F)F)cc2)C1 (stereo not drawn) [Example 47, 4-acetyl-1-(5-benzenesulfonyl-thiophene-2-sulfonyl)-piperazine-2-carboxylic acid 4-trifluoromethyl-benzylamide] | < 6.00 | < 6.00
CC(=O)N1CCN(S(=O)(=O)c2ccc3c(c2)CCO3)C(C(=O)NCc2ccc(C(F)(F)F)cc2)C1 (stereo not drawn) [Example 48, 4-acetyl-1-(2,3-dihydro-benzofuran-5-sulfonyl)-piperazine-2-carboxylic acid 4-trifluoromethyl-benzylamide] | < 6.00 | < 6.00
CC(=O)N1CCN(S(=O)(=O)c2ccc(C(C)C)cc2)C(C(=O)NCc2ccccc2)C1 (stereo not drawn) [Example 49, 4-acetyl-1-(4-isopropyl-benzenesulfonyl)-piperazine-2-carboxylic acid benzylamide] | < 6.00 | < 6.00
COc1ccccc1CNC(=O)C1CN(C(C)=O)CCN1S(=O)(=O)c1ccc(C(C)C)cc1 (stereo not drawn) [Example 50, 4-acetyl-1-(4-isopropyl-benzenesulfonyl)-piperazine-2-carboxylic acid 2-methoxy-benzylamide] | < 6.00 | < 6.00
COc1cccc(CNC(=O)C2CN(C(C)=O)CCN2S(=O)(=O)c2ccc(C(C)C)cc2)c1 (stereo not drawn) [Example 51, 4-acetyl-1-(4-isopropyl-benzenesulfonyl)-piperazine-2-carboxylic acid 3-methoxy-benzylamide] | < 6.00 | < 6.00
COc1ccc(CNC(=O)C2CN(C(C)=O)CCN2S(=O)(=O)c2ccc(C(C)C)cc2)cc1 (stereo not drawn) [Example 52, 4-acetyl-1-(4-isopropyl-benzenesulfonyl)-piperazine-2-carboxylic acid 4-methoxy-benzylamide] | < 6.00 | < 6.00

Source: patent US8017612B2, “Piperazine compound and use thereof as a HCV polymerase inhibitor” (priority 2006, dated 2011)
